According to patent publication EP4692090A1 (Shanghai Fosun Pharmaceutical (Group) Co., Ltd., priority 2023, dated 2024):

Biological target: T1, ATR kinase (Homo sapiens, UniProt Q13535)
T1 construct: purchased Eurofins 14-953
Assay: Inhibitory effect on ATR kinase activity (Caliper mobility shift, FAM-labeled RAD17 peptide substrate)
Assay type: biochemical
Details: 1 nM ATR kinase (Eurofins), 28°C for 3 hours, maximum concentration 1 µM, 10 concentrations, read-out: ATR kinase IC50
Protocol: Test Example 1: Inhibitory effect of the compounds of the present disclosure on ATR kinase activity
Test compounds to be tested were serially diluted with DMSO (maximum concentration 1 µM, 10 concentrations with 3-fold serial dilution) and added to the wells of a 384-well reaction plate (Corning, #4512). 1 nM ATR kinase (Eurofins, #14-953), 5 mM substrate (FAM-labeled RAD17 peptide, FAM-ASELPASQPQPFSAKKK), 5 mM ATP and the compounds with corresponding concentrations reacted in a kinase reaction solution (50 mM HEPES, pH 7.5; 0.0015% Brij-35; 10 mM MnCl2, total volume of 20 µL) at 28°C for 3 hours. The reaction was terminated by adding 30 µL of stop solution (100 mM HEPES, pH 7.5; 0.015% Brij-35; 0.2% Coating Reagent #3, PerkinElmer; 50 mM EDTA). The reaction plate was placed on a Caliper instrument (PerkinElmer) for testing. The relative inhibitory activity of each compound concentration group was calculated using the following formula: % Inhibition = (Conversion rate of the blank control group without compound added - Conversion rate of the test compound group) / (Conversion rate of the blank control group - […]). The IC50 values were calculated using GraphPad analysis and fitted. […] Table 1. Inhibitory effect (IC50) of compounds on ATR kinase activity.

T1 sequence (Q13535 whole entry): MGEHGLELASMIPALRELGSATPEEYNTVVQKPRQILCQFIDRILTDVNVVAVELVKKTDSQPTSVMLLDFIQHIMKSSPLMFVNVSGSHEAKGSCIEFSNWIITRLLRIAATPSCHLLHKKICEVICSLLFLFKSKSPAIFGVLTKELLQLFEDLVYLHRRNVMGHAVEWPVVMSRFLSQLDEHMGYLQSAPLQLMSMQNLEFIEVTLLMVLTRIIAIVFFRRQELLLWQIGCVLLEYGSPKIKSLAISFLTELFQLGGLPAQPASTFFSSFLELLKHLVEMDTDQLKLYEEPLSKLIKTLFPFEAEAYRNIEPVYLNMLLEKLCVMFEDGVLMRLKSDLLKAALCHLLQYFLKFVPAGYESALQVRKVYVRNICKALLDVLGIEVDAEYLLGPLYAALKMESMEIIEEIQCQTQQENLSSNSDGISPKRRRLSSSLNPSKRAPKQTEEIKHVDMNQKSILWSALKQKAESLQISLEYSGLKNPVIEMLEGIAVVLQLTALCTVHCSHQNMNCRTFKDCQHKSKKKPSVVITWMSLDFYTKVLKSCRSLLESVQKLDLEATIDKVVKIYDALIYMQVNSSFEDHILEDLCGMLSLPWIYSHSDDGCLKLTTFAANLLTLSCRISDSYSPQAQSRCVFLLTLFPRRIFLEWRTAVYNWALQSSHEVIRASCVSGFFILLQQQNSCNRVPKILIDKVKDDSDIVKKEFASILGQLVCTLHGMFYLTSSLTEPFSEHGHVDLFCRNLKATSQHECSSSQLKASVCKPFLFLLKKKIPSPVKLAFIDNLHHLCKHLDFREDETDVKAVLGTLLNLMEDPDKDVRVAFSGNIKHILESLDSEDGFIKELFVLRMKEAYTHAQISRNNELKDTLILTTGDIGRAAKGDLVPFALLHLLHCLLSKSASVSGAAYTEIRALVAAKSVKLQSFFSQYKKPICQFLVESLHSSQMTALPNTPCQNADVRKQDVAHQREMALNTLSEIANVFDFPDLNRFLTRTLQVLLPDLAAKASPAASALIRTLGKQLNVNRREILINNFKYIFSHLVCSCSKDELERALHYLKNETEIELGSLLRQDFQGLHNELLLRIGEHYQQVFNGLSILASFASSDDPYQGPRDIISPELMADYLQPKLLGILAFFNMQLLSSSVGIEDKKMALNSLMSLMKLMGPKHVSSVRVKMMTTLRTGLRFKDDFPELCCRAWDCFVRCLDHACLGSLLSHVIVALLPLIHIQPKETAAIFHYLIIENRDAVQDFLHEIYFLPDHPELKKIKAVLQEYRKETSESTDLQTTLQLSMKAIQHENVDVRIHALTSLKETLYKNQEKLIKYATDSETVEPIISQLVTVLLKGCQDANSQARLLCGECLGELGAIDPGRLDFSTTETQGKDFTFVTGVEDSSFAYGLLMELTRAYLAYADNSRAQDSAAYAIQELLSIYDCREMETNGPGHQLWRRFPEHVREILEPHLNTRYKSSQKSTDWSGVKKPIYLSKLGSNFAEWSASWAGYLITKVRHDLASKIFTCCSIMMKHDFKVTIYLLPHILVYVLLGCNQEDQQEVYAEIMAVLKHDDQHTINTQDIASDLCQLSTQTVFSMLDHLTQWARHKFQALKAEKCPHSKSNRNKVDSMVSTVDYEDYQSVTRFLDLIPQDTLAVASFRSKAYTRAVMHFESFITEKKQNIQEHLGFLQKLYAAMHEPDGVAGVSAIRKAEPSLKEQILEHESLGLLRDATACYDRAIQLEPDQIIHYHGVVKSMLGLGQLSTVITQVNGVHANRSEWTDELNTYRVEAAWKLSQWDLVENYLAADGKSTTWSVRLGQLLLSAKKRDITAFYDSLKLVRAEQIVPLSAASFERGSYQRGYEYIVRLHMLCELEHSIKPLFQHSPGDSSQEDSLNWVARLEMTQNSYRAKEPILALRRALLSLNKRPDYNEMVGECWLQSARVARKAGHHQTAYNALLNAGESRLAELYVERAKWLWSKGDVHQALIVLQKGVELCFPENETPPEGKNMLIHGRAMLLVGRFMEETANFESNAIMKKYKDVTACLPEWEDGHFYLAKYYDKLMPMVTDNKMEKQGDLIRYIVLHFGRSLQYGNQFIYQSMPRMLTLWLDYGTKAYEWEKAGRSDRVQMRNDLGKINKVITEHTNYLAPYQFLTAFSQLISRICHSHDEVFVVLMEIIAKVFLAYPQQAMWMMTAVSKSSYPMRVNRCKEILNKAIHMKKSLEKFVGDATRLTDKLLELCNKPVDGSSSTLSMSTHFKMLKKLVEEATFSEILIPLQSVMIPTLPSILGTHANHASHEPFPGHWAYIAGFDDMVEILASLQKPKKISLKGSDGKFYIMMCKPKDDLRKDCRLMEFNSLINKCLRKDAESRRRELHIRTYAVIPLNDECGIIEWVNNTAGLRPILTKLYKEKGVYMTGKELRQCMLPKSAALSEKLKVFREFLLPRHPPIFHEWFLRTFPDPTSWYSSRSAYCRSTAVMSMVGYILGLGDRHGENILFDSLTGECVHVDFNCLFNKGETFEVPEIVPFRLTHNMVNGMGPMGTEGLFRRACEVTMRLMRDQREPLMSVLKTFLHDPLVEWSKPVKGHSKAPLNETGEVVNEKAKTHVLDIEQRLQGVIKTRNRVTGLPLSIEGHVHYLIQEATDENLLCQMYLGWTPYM
T1 sequence (Q8WXE1 whole entry partner): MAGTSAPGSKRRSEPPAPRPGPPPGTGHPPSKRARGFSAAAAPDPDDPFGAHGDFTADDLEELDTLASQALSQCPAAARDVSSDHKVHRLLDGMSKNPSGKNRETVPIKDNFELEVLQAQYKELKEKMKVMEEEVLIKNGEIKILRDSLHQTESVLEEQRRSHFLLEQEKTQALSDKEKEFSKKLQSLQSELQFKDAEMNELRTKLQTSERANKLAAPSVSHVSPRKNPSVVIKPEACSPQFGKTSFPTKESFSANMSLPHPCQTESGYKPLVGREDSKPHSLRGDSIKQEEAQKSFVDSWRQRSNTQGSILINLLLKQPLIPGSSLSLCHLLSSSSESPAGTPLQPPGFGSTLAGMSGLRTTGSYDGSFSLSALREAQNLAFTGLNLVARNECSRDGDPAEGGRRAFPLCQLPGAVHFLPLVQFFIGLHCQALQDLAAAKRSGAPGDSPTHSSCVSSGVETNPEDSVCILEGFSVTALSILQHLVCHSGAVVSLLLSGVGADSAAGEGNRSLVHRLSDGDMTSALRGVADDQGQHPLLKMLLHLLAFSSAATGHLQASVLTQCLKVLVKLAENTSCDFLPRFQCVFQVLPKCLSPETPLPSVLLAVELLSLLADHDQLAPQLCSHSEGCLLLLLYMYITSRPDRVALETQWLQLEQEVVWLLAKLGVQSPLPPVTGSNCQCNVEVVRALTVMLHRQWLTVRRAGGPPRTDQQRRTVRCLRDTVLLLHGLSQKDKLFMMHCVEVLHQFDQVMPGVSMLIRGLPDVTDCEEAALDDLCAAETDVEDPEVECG

| IC50 [µM] | Compound |
| --- | --- |
| < 0.01 | CC1c2cc(N3CCOC[C@H]3C)nc3c2c(nn3-c2cc[nH]n2)CCN1C (single isomer, unassigned) [Compound 35B] |
| 1 to 2.5 | C[C@@H]1COCCN1c1cc2c3c(n1)c(-c1cc[nH]n1)nn3CCN2 [Compound 61, (R)-4-(1-(1H-pyrazol-3-yl)-4,5-dihydro-3H-2,2a,5,8-tetraazaacenaphthen-7-yl)-3-methylmorpholine] |

Same assay, conditions: read-out: ATR kinase IC50, 1 nM ATR kinase (Eurofins), 28°C for 3 hours, maximum concentration 1 µM, 10 concentrations

| Compound | IC50 [µM] |
| --- | --- |
| C[C@@H]1COCCN1c1cc2c3c(n1)c(-c1cc[nH]n1)nn3CCC(=O)N2C1CC2(C1)CC(C)(O)C2 (stereo partly drawn) [Compound 94, (R)-6-(6-hydroxy-6-methylspiro[3.3]hept-2-yl)-4-(3-methylmorpholinyl)-2-(1H-pyrazol-3-yl)-8,9-dihydro-1,3,6,9a-tetraazabenzo[cd]azulene-7(6H)-one] | 0.01 to 0.1 |

Tested on: LoVo cells
Assay: LoVo cell proliferation assay (CellTiter-Glo)
Assay type: cell-based
Details: Homo sapiens, LoVo, 120 h, LoVo cells, 2,000 cells per well, 5 days incubation, CellTiter-Glo; maximum concentration 10 µM, 9 concentrations; read-out: LoVo IC50
Protocol: Test Example 2: LoVo cell proliferation assay
LoVo (ATCC, #CRL-229) cells in logarithmic growth phase were digested, counted, and plated into 96-well cell culture plates at 2,000 cells per well. The plates containing cells were incubated overnight at 37°C in a 5% CO2 incubator, and then test compounds with 3-fold gradient dilutions (maximum concentration: 10 µM, 9 concentrations) were added. DMSO was used as a blank control. After the LoVo cells containing the compounds or DMSO were incubated for an additional 5 days, an equal volume of CellTiter-Glo reagent (Promega, #7573) was added. After incubation at room temperature for 30 minutes, chemiluminescence was read using an Envision 2105 (PerkinElmer). The cell proliferation inhibition rate (%) for wells treated with each concentration of the compounds was calculated using the following formula. Then, with compound concentration as the horizontal axis and cell proliferation inhibition rate (%) as the vertical axis, GraphPad software was used to plot the data and determine the IC50 values of the test compounds. The results are shown in Table 2, wherein the IC50 ranges are defined as follows: A: ≤ 100 nM; 1000 nM ≥ B > 100 nM; C > 1000 nM.
Cell proliferation inhibition (%) = (1 - luminescence value of compound-treated group / average luminescence value of DMSO blank control group) × 100. Table 2. Inhibitory effect of compounds on LoVo growth

| IC50 [nM] | Compound |
| --- | --- |
| 100 to 1000 | CC1c2cc(N3CCOC[C@H]3C)nc3c2c(nn3-c2cc[nH]n2)CCN1S(C)(=N)=O (single isomer, unassigned) [Compound 46A] |
| 100 to 1000 | CC1c2cc(N3CCOC[C@H]3C)nc3c(-c4cc[nH]n4)nn(c23)CCN1C (single isomer, unassigned) [Compound 59A] |
| > 1000 | C[C@@H]1COCCN1c1cc2c3c(n1)c(-c1cc[nH]n1)nn3CCC2(O)C1CCOCC1 (single isomer, unassigned) [Compound 73A] |
| > 1000 | C[C@@H]1COCCN1c1cc2c3c(n1)c(-c1cc[nH]n1)nn3CCC2(O)c1cnn(C)c1 (single isomer, unassigned) [Compound 74A] |
| < 100 | CC(C)C1c2cc(N3CCOC[C@H]3C)nc3c2c(nn3-c2cc[nH]n2)CCN1S(C)(=O)=O (single isomer, unassigned) [Compound 140A] |
| 100 to 1000 | C[C@@H]1COCCN1c1cc2c3c(n1)c(-c1cc[nH]n1)nn3CCC(=O)N2[C@@H](C)CC(F)(F)F [Compound 111A, 4-((R)-3-methylmorpholino)-2-(1H-pyrazol-3-yl)-6-((S)-4,4,4-trifluorobutan-2-yl)-8,9-dihydro-1,3,6,9a-tetraazabenzo[cd]azulene-7(6H)-one] |
| 100 to 1000 | C[C@@H]1COCCN1c1cc2c3c(n1)c(-c1cc[nH]n1)nn3CCC(=O)N2[C@H](C)CC(F)(F)F [Compound 111B, 4-((R)-3-methylmorpholino)-2-(1H-pyrazol-3-yl)-6-((R)-4,4,4-trifluorobutan-2-yl)-8,9-dihydro-1,3,6,9a-tetraazabenzo[cd]azulene-7(6H)-one] |

More lines, now with the values behind:

| Compound | IC50 [nM] |
| --- | --- |
| CC1c2cc(N3CCOC[C@H]3C)nc3c2c(nn3-c2cc[nH]n2)CCN1CC(F)F (single isomer, unassigned) [Compound 45A] | 100 to 1000 |
| C[C@@H]1COCCN1c1cc2c3c(nn(-c4cc[nH]n4)c3n1)CCN(S(=O)(=O)C(F)(F)F)C2 [Compound 25, (R)-4-(2-(1H-pyrazol-3-yl)-7-((trifluoromethyl)sulfonyl)-6,7,8,9-tetrahydro-2H-1,2,3,7-tetraazabenzo[cd]azulen-4-yl)-3-methylmorpholine] | < 100 |
| C[C@@H]1COCCN1c1cc2c3c(nn(-c4cc[nH]n4)c3n1)CCN(S(=O)(=O)C1COC1)C2 [Compound 26, (R)-3-methyl-4-(7-(oxetan-3-ylsulfonyl)-2-(1H-pyrazol-3-yl)-6,7,8,9-tetrahydro-2H-1,2,3,7-tetraazabenzo[cd]azulen-4-yl)morpholine] | 100 to 1000 |
| CC1c2cc(N3CCOC[C@H]3C)nc3c2c(nn3-c2cc[nH]n2)CCN1c1cnn(C)c1 (stereo partly drawn) [Compound 43, (3R)-3-methyl-4-(6-methyl-7-(1-methyl-1H-pyrazol-4-yl)-2-(1H-pyrazol-3-yl)-6,7,8,9-tetrahydro-2H-1,2,3,7-tetraazabenzo[cd]azulen-4-yl)morpholine] | 100 to 1000 |
| C[C@@H]1COCCN1c1cc2c3c(n1)c(-c1cc[nH]n1)nn3CCNC2 [Compound 51, (R)-4-(2-(1H-pyrazol-3-yl)-6,7,8,9-tetrahydro-1,3,7,9a-tetraazabenzo[cd]azulen-4-yl)-3-methylmorpholine] | 100 to 1000 |
| CC1c2cc(N3CCOC[C@H]3C)nc3c(-c4cc[nH]n4)nn(c23)CCN1S(C)(=O)=O (stereo partly drawn) [Compound 60, (3R)-3-methyl-4-(6-methyl-7-(methylsulfonyl)-2-(1H-pyrazol-3-yl)-6,7,8,9-tetrahydro-1,3,7,9a-tetraazabenzo[cd]azulen-4-yl)morpholine] | 100 to 1000 |
| C[C@@H]1COCCN1c1cc2c3c(n1)c(-c1cc[nH]n1)nn3CCN2S(C)(=O)=O [Compound 64] | 100 to 1000 |
| C[C@@H]1COCCN1c1cc2c3c(n1)c(-c1cc[nH]n1)nn3CCC2(C)O (stereo partly drawn) [Compound 71, 6-methyl-4-((R)-3-methylmorpholino)-2-(1H-pyrazol-3-yl)-7,8-dihydro-6H-pyrazolo[4,5,1-ij][1, 7]naphthyridin-6-ol] | 100 to 1000 |
| C[C@@H]1COCCN1c1cc2c3c(nn(-c4cc[nH]n4)c3n1)CCN(S(=O)(=O)C1CC1)C2C1CC1 (stereo partly drawn) [Compound 143, (3R)-4-(6-cyclopropyl-7-(cyclopropylsulfonyl)-2-(1H-pyrazol-3-yl)-6,7,8,9-tetrahydro-2H-1,2,3,7-tetraazabenzo[cd]-azulen-4-yl)-3-methylmorpholine] | 100 to 1000 |
| C[C@@H]1COCCN1c1cc2c3c(nn(-c4cc[nH]n4)c3n1)CCOC2C(F)F (stereo partly drawn) [Compound 148, 6-(difluoromethyl)-4-((R)-3-methylmorpholino)-2-(1H-pyrazol-3-yl)-2,6,8,9-tetrahydro-7-oxa-1,2,3-triazabenzo[cd]azulene] | < 100 |
| CC1c2cc(N3CCOC[C@H]3C)nc3c2c(nn3-c2cc[nH]n2)CCN1S(N)(=O)=O (stereo partly drawn) [Compound 150, 6-methyl-4-((R)-3-methylmorpholino)-2-(1H-pyrazol-3-yl)-2,6,8,9-tetrahydro-7H-1,2,3,7-tetraazabenzene[cd]azulene-7-sulfonamide] | 100 to 1000 |

Same assay, conditions: Homo sapiens, LoVo, 120 h, read-out: LoVo IC50 (nM), LoVo cells, 2,000 cells per well, 5 days incubation, CellTiter-Glo; maximum concentration 10 µM, 9 concentrations

| Compound | IC50 [nM] |
| --- | --- |
| C[C@@H]1COCCN1c1cc2c3c(nn(-c4cc[nH]n4)c3n1)CCC(=O)N2C12CC(C1)C2 [Compound 76, (R)-6-(bicyclo[1.1.1]pentan-1-yl)-4-(3-methylmorpholinyl)-2-(1H-pyrazol-3-yl)-2,6,8,9-tetrahydro-7H-1,2,3,6-tetraazabenzo[cd]azulene-7-one] | < 100 |
| C[C@@H]1COCCN1c1cc2c3c(nn(-c4cc[nH]n4)c3n1)CCC(=O)N2C1(CF)CC1 [Compound 80, (R)-6-(1-(fluoromethyl)cyclopropyl)-4-(3-methylmorpholinyl)-2-(1H-pyrazol-3-yl)-2,6,8,9-tetrahydro-7H-1,2,3,6-tetraazabenzo[cd]azulene-7-one] | < 100 |

Same assay, conditions: LoVo cells, 2,000 cells per well, 5 days incubation, CellTiter-Glo; maximum concentration 10 µM, 9 concentrations; read-out: LoVo IC50

| IC50 [nM] | Compound |
| --- | --- |
| 100 to 1000 | CC1c2cc(N3CCOC[C@H]3C)nc3c2c(nn3-c2cc[nH]n2)CCN1S(C)(=N)=O (single isomer, unassigned) [Compound 46B] |
| 100 to 1000 | CC1c2cc(N3CCOC[C@H]3C)nc3c2c(nn3-c2cc[nH]n2)CCN1S(C)(=N)=O (single isomer, unassigned) [Compound 46D] |
| 100 to 1000 | CC1c2cc(N3CCOC[C@H]3C)nc3c(-c4cc[nH]n4)nn(c23)CCN1C (single isomer, unassigned) [Compound 59B] |
| > 1000 | C[C@@H]1COCCN1c1cc2c3c(n1)c(-c1cc[nH]n1)nn3CCC2(O)C1CCOCC1 (single isomer, unassigned) [Compound 73B] |
| > 1000 | C[C@@H]1COCCN1c1cc2c3c(n1)c(-c1cc[nH]n1)nn3CCC2(O)c1cnn(C)c1 (single isomer, unassigned) [Compound 74B] |
| 100 to 1000 | CC(C)C1c2cc(N3CCOC[C@H]3C)nc3c2c(nn3-c2cc[nH]n2)CCN1S(C)(=O)=O (single isomer, unassigned) [Compound 140B] |

More lines, now with the values behind:

| Compound | IC50 [nM] |
| --- | --- |
| CC1c2cc(N3CCOC[C@H]3C)nc3c2c(nn3-c2cc[nH]n2)CCN1CC1COC1 (single isomer, unassigned) [Compound 44B] | 100 to 1000 |
| CC1c2cc(N3CCOC[C@H]3C)nc3c2c(nn3-c2cc[nH]n2)CCN1CC(F)F (single isomer, unassigned) [Compound 45B] | 100 to 1000 |
